Among the test systems are TK-10; UACC-257; SW-620; KM12; OVCAR-3; HCT-15; SK-MEL-28; OVCAR-8; K562; COLO 205; A498; HL-60; A549; LOX IMVI; SR; HOP-92; HCC 2998.
Common to all, as to assay: growth of human tumour cells (NCI), 48 h

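Results reflect a 48-hour exposure of cells in 96-well plates to compound at five concentrations. GI50: concentration for 50% inhibition of growth.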 The source made the active and inactive calls. Cut-off read from the data, not from the text of the source: active = GI50 up to about 1.1 µM and inactive = higher.

With `COc1ccc(N/N=C(\CCN(C)C)c2ccccc2)cc1`, the GI50 was 2.23 µM (inactive) with TK-10; 3.78 µM (inactive) with UACC-257; 2.86 µM (inactive) in the assay with SW-620; 4.73 µM (inactive) in the assay with KM12; 2.81 µM (inactive) in the assay with OVCAR-3; 1.15 µM in the assay with HCT-15. For the same compound, the GI50 is 2.69 µM (inactive) with SK-MEL-28; 12.8 µM (inactive) with OVCAR-8; 2.39 µM (inactive) with K562; 2.78 µM (inactive) in the assay on COLO 205; 14.9 µM (inactive) in the assay on A498; 2.82 µM (inactive) in the assay with HL-60. The GI50 was 1.67 µM (inactive) in the assay with A549, 2.07 µM (inactive) with LOX IMVI and 3.17 µM (inactive) in the assay on SR.
With `OCC1CC2C=CCC(C2)C1` (stereo unspecified), the GI50 in the assay on TK-10, in the assay on UACC-257, with SW-620, in the assay with KM12, in the assay with OVCAR-3 and in the assay with SK-MEL-28 was > 100 µM (inactive) each time. The GI50 in the assay on OVCAR-8, in the assay on K562, in the assay with COLO 205, in the assay on A498, with HL-60 and in the assay with A549 was > 100 µM (inactive) in each case. Besides, the GI50 in the assay with LOX IMVI, in the assay on HOP-92 and in the assay with SR was > 100 µM (inactive) in each case.
In the case of `CCOC(=O)C1(Br)C(c2ccccc2)NC(=O)N(C2OC(COC(=O)c3ccccc3)C(OC(=O)c3ccccc3)C2OC(=O)c2ccccc2)C1(C)Br` (stereo unspecified), the GI50 with HCC 2998 is 91 µM (inactive); with TK-10, 39.4 µM (inactive); in the assay with UACC-257, 18.6 µM (inactive); with SW-620, 14.4 µM (inactive); with KM12 it was 21.6 µM (inactive); with OVCAR-3, 29.6 µM (inactive). Also, the GI50 is 15.8 µM with HCT-15; > 47 µM (inactive) in the assay on SK-MEL-28; 17.3 µM (inactive) with OVCAR-8; 8.91 µM (inactive) in the assay with K562; 24.4 µM (inactive) in the assay with COLO 205; 38.9 µM (inactive) with A498. Moreover, the GI50 with HL-60 was 0.0565 µM (active); in the assay with A549, 12.9 µM (inactive); in the assay on LOX IMVI it was 21.8 µM (inactive); in the assay with HOP-92, 18.1 µM (inactive).
For the compound `NCC(=O)OCN1C(=O)C2C3C=CC(C2C1=O)C1C2C(=O)N(COC(=O)CN)C(=O)C2C31` (stereo unspecified), the GI50 is 31.3 µM (inactive) in the assay with TK-10; 36.3 µM (inactive) with UACC-257; 22.4 µM (inactive) with SW-620; 22.2 µM (inactive) with KM12; 35.7 µM (inactive) in the assay with OVCAR-3; 19.1 µM in the assay on HCT-15. Also, the GI50 with SK-MEL-28 was 19.1 µM (inactive); in the assay with OVCAR-8 it was 20.7 µM (inactive); in the assay with K562 it was 30.5 µM (inactive); in the assay with COLO 205, 21.4 µM (inactive); with A498, > 100 µM (inactive); in the assay with HL-60, 12.4 µM (inactive). Besides, the figures for the GI50 in the assay with A549, in the assay with LOX IMVI and with HOP-92 were 30.1 µM (inactive), 20 µM (inactive) and 94 µM (inactive), respectively.
As for `N#CC12CCC(O)C(CC1)C2=O` (stereo unspecified), the GI50 was > 100 µM (inactive) in the assay with HCC 2998; > 100 µM (inactive) in the assay on TK-10; > 100 µM (inactive) with UACC-257; > 100 µM (inactive) in the assay on KM12; > 100 µM (inactive) in the assay with OVCAR-3; more than 100 µM in the assay with HCT-15. For the same compound, the GI50 in the assay with SK-MEL-28 is > 100 µM (inactive); in the assay on OVCAR-8 it was > 100 µM (inactive); in the assay on K562, > 100 µM (inactive); in the assay on COLO 205 it was 87.9 µM (inactive); in the assay on A498, > 100 µM (inactive); in the assay on HL-60, > 100 µM (inactive). Moreover, the values for the GI50 in the assay with A549, in the assay with LOX IMVI and in the assay with SR were > 100 µM (inactive), 21.5 µM (inactive) and 27.3 µM (inactive), respectively.
Turning to `CCNC(=O)COc1ccc(Br)cc1Br`, the GI50 in the assay on HCC 2998 is > 100 µM (inactive); in the assay on UACC-257, > 100 µM (inactive); in the assay on SW-620 it was > 100 µM (inactive); with KM12, > 100 µM (inactive); with OVCAR-3, > 100 µM (inactive); with HCT-15, more than 100 µM. For the same compound, the GI50 in the assay on SK-MEL-28, in the assay on K562, in the assay on COLO 205, with A498, with HL-60 and in the assay with A549 was > 100 µM (inactive) in each case. Moreover, the values for the GI50 in the assay on LOX IMVI, with HOP-92 and in the assay on SR were > 100 µM (inactive), 29 µM (inactive) and > 100 µM (inactive), respectively.
In the case of `Cc1ccc(NC(=O)C(=O)C(C#N)c2nc(-c3ccc(-c4ccccc4)cc3)cs2)c(C)c1` (stereo unspecified), the GI50 in the assay with HCC 2998 was > 100 µM (inactive); in the assay on TK-10 it was > 100 µM (inactive); in the assay on UACC-257, 58.7 µM (inactive); in the assay with SW-620 it was 17.4 µM (inactive); with OVCAR-3 it was > 100 µM (inactive); in the assay with HCT-15 it was more than 100 µM. Moreover, the GI50 in the assay on SK-MEL-28, with OVCAR-8, in the assay on COLO 205, in the assay with A498, in the assay with A549 and in the assay with LOX IMVI was > 100 µM (inactive) in each case. Besides, the GI50 with SR is > 100 µM (inactive).
Take `COc1cc2c(cc1OC)C(CC1=C(c3ccccc3)CN3CCc4cc(OC)c(OC)cc4C3C1)NCC2` (stereo unspecified): the GI50 in the assay on HCC 2998 was 10.6 µM (inactive); in the assay on TK-10 it was 16.6 µM (inactive); with UACC-257, 16.2 µM (inactive); in the assay with SW-620, 17.7 µM (inactive); in the assay on KM12 it was 17.2 µM (inactive); in the assay with OVCAR-3 it was 17.3 µM (inactive). The GI50 is 17.7 µM with HCT-15; 14.5 µM (inactive) in the assay on SK-MEL-28; 19.3 µM (inactive) in the assay with OVCAR-8; 12.2 µM (inactive) in the assay with K562; 15.2 µM (inactive) in the assay with COLO 205; 16.7 µM (inactive) in the assay with A498. For the same compound, the figures for the GI50 with HL-60, with A549 and in the assay with LOX IMVI were 12.2 µM (inactive), 17 µM (inactive) and 15.8 µM (inactive), respectively.
Turning to `NC(CCC(=O)Nc1ccc(O)cc1)C(=O)O` (stereo unspecified), the GI50 was > 100 µM (inactive) with TK-10; > 100 µM (inactive) in the assay with UACC-257; > 100 µM (inactive) in the assay with SW-620; > 100 µM (inactive) with KM12; > 100 µM (inactive) in the assay on OVCAR-3; more than 100 µM in the assay on HCT-15. In addition, the GI50 in the assay on SK-MEL-28, with OVCAR-8, with K562, in the assay with COLO 205, with A498 and in the assay on HL-60 was > 100 µM (inactive) in each case. Besides, the GI50 with A549, in the assay on LOX IMVI, with HOP-92 and with SR was > 100 µM (inactive) in each case.
For the compound `Nc1ccc(N)c2c1C(=O)c1c(N)ccc(N)c1C2=O`, the GI50 in the assay on HCC 2998 was 39.6 µM (inactive); with TK-10, > 59.3 µM (inactive); in the assay on UACC-257 it was > 87.1 µM (inactive); in the assay on SW-620, 52.6 µM (inactive); with KM12, 60.8 µM (inactive); with OVCAR-3, 25.1 µM (inactive). Moreover, the GI50 is more than 66.5 µM in the assay with HCT-15; 98.6 µM (inactive) with SK-MEL-28; 58.9 µM (inactive) with OVCAR-8; > 92.9 µM (inactive) with K562; 58.6 µM (inactive) in the assay with COLO 205; 61 µM (inactive) in the assay with A498. Moreover, the GI50 in the assay on HL-60 is 45.6 µM (inactive); in the assay on A549, 62.7 µM (inactive); in the assay with LOX IMVI, > 31.6 µM (inactive); in the assay on HOP-92 it was 36.6 µM (inactive).

For the origin of these results see ChEMBL document CHEMBL1201862, “PubChem BioAssay data set” (2004).
